The values below come from patent publication US9873702B2, “Heterocyclic compounds as biogenic amine transport modulators” (Southern Research Institute, priority 2014, dated 2018).

A value given as a limit tells only on which side of the number the result lay.

Data set [1] has as its target dopamine transporter (DAT) (Rattus norvegicus, UniProt P23977). As to the kind of experiment: Dopamine reuptake ([^3H]dopamine uptake) inhibition in rat brain synaptosomes. As to conditions: for IC50: DA Uptake EC50 (nM ± SD), rat caudate synaptosomes, 5 nM [^3H]dopamine, 15 min, 25° C., three experiments pooled; for Emax: read-out: DA Uptake Emax (% I ± SD).
Protocol: Freshly removed caudate was homogenized in 10% ice-cold sucrose with 12 strokes of a hand-held Potter-Elvehj em homogenizer followed by centrifugation at 1000×g for 10 min. The supernatants were saved on ice and used immediately. Transporter activity was assessed using 5 nM [^3H]dopamine. […] The selectivity of the uptake assay for dopamine active transporter (DAT) was optimized by including 100 nM citalopram and 100 nM desipramine as blockers of serotonin transporter (SERT) and norepinephrine transporter (NET) in the sucrose solution and assay buffer. Uptake inhibition assays were conducted at 25° C. and were initiated by adding 100 μl of tissue to 900 μL assay buffer containing test drug and [^3H]dopamine. Test drugs were diluted in assay buffer containing 1 mg/mL bovine serum albumin. Nonspecific uptake was measured by incubating in the presence of 10 μM indatraline. The reactions were stopped after 15 minutes by rapid vacuum filtration with a cell harvester (BRANDEL) over GF/B filters (Whatman) presoaked in wash buffer maintained at 25° C. (10 mM Tris-HCl, pH 7.4/150 mM NaCl). Filters were rinsed with 6 mL wash buffer and retained tritium was quantified by a MicroBeta liquid scintillation counter (PerkinElmer) after overnight extraction in 0.6 mL of liquid scintillation cocktail (Cytoscint, ICN). The data from three experiments were pooled and fit to a dose-response curve equation (using Kaleidagraph), to yield an Emax and EC50 value.
The data from three experiments were pooled and fit to a dose-response curve equation (using KaleidaGraph; Synergy Software, Reading, Pa.) to yield an Emax and IC50 value.

Sequence of dopamine transporter (DAT) (P23977 whole entry): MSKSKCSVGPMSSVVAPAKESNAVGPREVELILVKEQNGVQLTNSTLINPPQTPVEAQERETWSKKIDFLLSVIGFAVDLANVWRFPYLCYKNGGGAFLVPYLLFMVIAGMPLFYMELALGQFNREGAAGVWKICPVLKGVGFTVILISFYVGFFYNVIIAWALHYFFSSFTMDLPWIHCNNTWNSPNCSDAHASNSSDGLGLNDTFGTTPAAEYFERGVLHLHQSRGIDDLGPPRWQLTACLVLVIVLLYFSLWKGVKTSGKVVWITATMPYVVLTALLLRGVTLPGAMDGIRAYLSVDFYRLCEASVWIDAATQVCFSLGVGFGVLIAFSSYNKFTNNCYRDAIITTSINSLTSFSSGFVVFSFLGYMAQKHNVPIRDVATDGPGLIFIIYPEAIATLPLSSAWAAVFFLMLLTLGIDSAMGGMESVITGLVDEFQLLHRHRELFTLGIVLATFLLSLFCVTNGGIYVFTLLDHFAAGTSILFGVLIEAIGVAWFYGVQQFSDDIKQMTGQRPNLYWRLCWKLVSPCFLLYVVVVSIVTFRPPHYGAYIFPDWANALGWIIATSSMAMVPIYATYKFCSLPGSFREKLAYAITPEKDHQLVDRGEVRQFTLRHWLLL

A word on the IC50: it is the concentration at which inhibition is half-maximal. A higher IC50 goes with weaker potency in that assay. The term Emax denotes the size of the effect at its maximum, as opposed to the concentration needed. As usually defined, the melting point is the temperature of the solid-liquid transition. On to `CC(C)(C)OC(=O)N1CCCc2ccc(-c3nc(NCC(c4ccccc4)c4ccccc4)c4ccccc4n3)cc21` [compound 71, Tert-Butyl 7-(4-((2,2-Diphenylethyl)Amino)Quinazolin-2-yl)-3,4-Dihydroquinoline-1(2H)-Carboxylate], for which the melting point worked out at 89 °C. Moreover, in data set [1], inhibition was half-maximal at 890 nM (IC50) and the Emax is under 100%.
For the molecule `Cn1ccc2cc(-c3nc(NCC(c4ccccc4)c4ccccc4)c4ccccc4n3)ccc21` [compound 77, N-(2,2-Diphenylethyl)-2-(1-Methyl-1H-Indol-5-yl)Quinazolin-4-Amine], the melting point came to 222 °C. Besides, in data set [1], inhibition was half-maximal at 28 ± 5 nM (IC50) and the Emax came to 69 ± 2%.
`Cn1cc2c(-c3nc(NCC(c4ccccc4)c4ccccc4)c4ccccc4n3)cccc2n1` [compound 68, N-(2,2-Diphenylethyl)-2-(2-Methyl-2H-Indazol-4-yl)Quinazolin-4-Amine]: the melting point worked out at 121 °C. Further, in data set [1], the concentration for half-maximal inhibition (IC50) turned out to be 195 ± 70 nM and the Emax is 55 ± 4%.
For `COc1cc2nc(-c3cccs3)nc(NCC(c3ccccc3)c3ccccc3)c2cc1OC` [compound 26, N-(2,2-Diphenylethyl)-6,7-Dimethoxy-2-(Thiophen-2-yl)Quinazolin-4-Amine] the same measures were 94 °C, 560 nM and 100%.
The molecule `c1ccc(C(CNc2nc(-c3ccncc3)nc3ccccc23)c2ccccc2)cc1` [compound 39, N-(2,2-Diphenylethyl)-2-(Pyridin-4-yl)Quinazolin-4-Amine] displayed a melting point of 242 °C. In addition, in data set [1], the IC50 is 47 ± 6 nM and the maximal effect (Emax) worked out at 78 ± 2%.
`c1ccc(C(CNc2nc(-c3cnc(N4CCCC4)nc3)nc3ccccc23)c2ccccc2)cc1` [compound 37, N-(2,2-Diphenylethyl)-2-(2-(Pyrrolidin-1-yl)Pyrimidin-5-yl)Quinazolin-4-Amine]: the melting point worked out at 208 °C. In data set [1], the IC50 was 121 ± 27 nM and the Emax came to 66 ± 3%.
As for `Cc1cc2nccn2cc1-c1nc(NCC(c2ccccc2)C(C)C)c2ccccc2n1` (stereo not drawn) [compound 169, N-(3-Methyl-2-Phenylbutyl)-2-(7-Methylimidazo[1,2-A]Pyridin-6-yl)Quinazolin-4-Amine], the melting point lay within 115 to 118 °C. Further, in data set [1], inhibition was half-maximal at 1.8 ± 0.4 nM (IC50) and the Emax stood at 64 ± 2%.
The molecule `COc1cc2nc(-c3cccnc3)nc(NCC(c3ccccc3)c3ccccc3)c2cc1OC` [compound 28, N-(2,2-Diphenylethyl)-6,7-Dimethoxy-2-(Pyridin-3-yl)Quinazolin-4-Amine] showed a melting point of 89 °C. In data set [1], 620 nM corresponded to half-maximal inhibition (IC50) and the maximum response (Emax) was under 100%.
As to `CS(=O)(=O)n1ccc2cc(-c3nc(NCC(c4ccccc4)c4ccccc4)c4ccccc4n3)ccc21` [compound 154, N-(2,2-Diphenylethyl)-2-(1-(Methylsulfonyl)-1H-Indol-5-yl)Quinazolin-4-Amine], the melting point lay within 144 to 146 °C. Moreover, in data set [1], 56 ± 13 nM corresponded to half-maximal inhibition (IC50) and the Emax was 73 ± 3%.
For `c1ccc(C(CNc2nc(-c3cccs3)nc3ccccc23)c2ccccc2)cc1` [compound 6, N-(2,2-Diphenylethyl)-2-(thiophen-2-yl)quinazolin-4-amine], the melting point is 148 to 152 °C. Moreover, in data set [1], the midpoint of inhibition, the IC50, lay at 575 ± 51 nM and the maximal response (Emax) is 78 ± 1%.
The molecule `c1ccc(C(CCNc2nc(-c3cncnc3)nc3ccccc23)c2ccccc2)cc1` [compound 22, N-(3,3-Diphenylpropyl)-2-(Pyrimidin-5-yl)Quinazolin-4-Amine] had a melting point of 154 °C. For the same molecule, in data set [1], the midpoint of inhibition, the IC50, lay at 750 nM and the Emax worked out at 100%.
`COc1cc2nc(-c3ccsc3)nc(NCC(c3ccccc3)c3ccccc3)c2cc1OC` [compound 27, N-(2,2-Diphenylethyl)-6,7-Dimethoxy-2-(Thiophen-3-yl)Quinazolin-4-Amine]: the melting point is 92 °C. Further, in data set [1], it took 580 nM to reach half-maximal inhibition (IC50) and the Emax turned out to be 100%.
On to `CCN(CC)C(=O)[C@]1(c2ccccc2)C[C@@H]1CNc1nc(-c2cn3ccnc3cc2C)nc2ccccc12` [compound 171, (1R,2S)—N,N-Diethyl-2-(((2-(7-Methylimidazo[1,2-A]pyridin-6-yl)Quinazolin-4-yl)Amino)Methyl)-1-Phenylcyclopropanecarboxamide], for which the melting point is 225 to 228 °C. Also, in data set [1], the IC50 came out at 16 ± 7 nM and the Emax was 73 ± 5%.
The molecule `c1ccc(C(CNc2nc(-c3cccc4[nH]ccc34)nc3ccccc23)c2ccccc2)cc1` [compound 32, N-(2,2-Diphenylethyl)-2-(1H-Indol-4-yl)Quinazolin-4-Amine] displayed a melting point of 100 °C. Also, in data set [1], half-maximal inhibition (IC50) required 189 ± 37 nM and the maximal effect (Emax) came to 68 ± 3%.
Consider `c1ccc(C(CNc2nc(-c3ccc4scnc4c3)nc3ccccc23)c2ccccc2)cc1` [compound 145, 2-(Benzo[D]Thiazol-5-yl)-N-(2,2-Diphenylethyl)Quinazolin-4-amine], for which the melting point lay in the range of 224 to 226 °C. Moreover, in data set [1], the IC50 is 533 ± 89 nM and the Emax is 67 ± 2%.
Consider `c1ccc(C(CNc2nc(-c3ccc4nncn4c3)nc3ccccc23)c2ccccc2)cc1` [compound 114, 2-([1,2,4]Triazolo[4,3-A]Pyridin-6-yl)-N-(2,2-Diphenylethyl)Quinazolin-4-amine], for which the melting point came out at 224 °C. Also, in data set [1], 67 ± 7 nM corresponded to half-maximal inhibition (IC50) and the Emax was found to be 68 ± 1%.
The molecule `c1ccc(C(CNc2nc(-c3ccc4ncnn4c3)nc3ccccc23)c2cccnc2)cc1` (stereo not drawn) [compound 132, 2-([1,2,4]Triazolo[1,5-a]pyridin-6-yl)-N-(2-phenyl-2-(pyridin-3-yl)ethyl)quinazolin-4-amine] registered a melting point of over 250 °C. For the same molecule, in data set [1], the IC50 was 103 ± 26 nM and the Emax amounted to 55 ± 3%.
`c1ccc(C(Nc2nc(-c3ccsc3)nc3ccccc23)c2ccccc2)cc1` [compound 11, N-Benzhydryl-2-(thiophen-3-yl)quinazolin-4-amine] returned a melting point of 152 to 155 °C. For the same molecule, in data set [1], the IC50 was 770 nM and the Emax came to 100%.
`COc1ccc(C(CNc2nc(-c3ccc4nccn4c3)nc3ccccc23)C2(O)CCCCC2)cc1` (stereo not drawn) [compound 153, 1-(2-((2-(Imidazo[1,2-A]Pyridin-6-yl)Quinazolin-4-yl)Amino)-1-(4-Methoxyphenyl)ethyl)Cyclohexanol]: the melting point lay within 247 to 249 °C. In data set [1], the concentration for half-maximal inhibition (IC50) was 41 ± 8 nM and the Emax turned out to be 70 ± 2%.
For `COc1ccc2nc(-c3cccnc3)nc(NCC(c3ccccc3)c3ccccc3)c2c1` [compound 59, N-(2,2-Diphenylethyl)-6-Methoxy-2-(Pyridin-3-yl)Quinazolin-4-Amine], the melting point was 77 °C. Also, in data set [1], the IC50 came out at 529 ± 146 nM and the Emax came out at 56 ± 3%.
As for `c1cncc(C(CNc2nc(-c3ccc4nccn4c3)nc3ccccc23)c2ccc[nH]2)c1` (stereo not drawn) [compound 155, 2-(Imidazo[1,2-A]Pyridin-6-yl)-N-(2-(pyridin-3-yl)-2-(1H-Pyrrol-2-yl)Ethyl)Quinazolin-4-Amine], the melting point lay in the range of 121 to 124 °C. For the same molecule, in data set [1], the IC50 amounted to 175 ± 65 nM and the maximum response (Emax) worked out at 77 ± 6%.
For `CC(C)(C)OC(=O)Nc1ncc(-c2nc(NCC(c3ccccc3)c3ccccc3)c3ccccc3n2)cn1` [compound 43, Tert-Butyl (5-(4-((2,2-Diphenylethyl)Amino)Quinazolin-2-yl)Pyrimidin-2-yl)Carbamate], the melting point was 189 °C. In addition, in data set [1], the IC50 turned out to be 1890 nM and the Emax is under 100%.
The molecule `c1ccc(CCNc2nc(N3CCc4[nH]ccc4C3)nc3ccccc23)cc1` [compound 202, 2-(6,7-Dihydro-1H-Pyrrolo[3,2-c]Pyridin-5(4H)-yl)-N-Phenethylquinazolin-4-Amine] came in with a melting point of 161 to 163 °C. Further, in data set [1], the IC50 is 94 ± 18 nM and the Emax was 100 ± 3%.
In the case of `c1ccc(CC(CNc2nc(-c3cnc4nccn4c3)nc3ccccc23)c2ccccc2)cc1` (stereo not drawn) [compound 142, N-(2,3-Diphenylpropyl)-2-(Imidazo[1,2-A]Pyrimidin-6-yl)Quinazolin-4-Amine], the melting point fell in the range of 189 to 191 °C. Moreover, in data set [1], half-maximal inhibition (IC50) was put at 15 ± 3 nM and the maximum response (Emax) stood at 73 ± 2%.
Consider `COc1ncc(-c2nc(NCC(c3ccccc3)c3ccccc3)c3ccccc3n2)cn1` [compound 29, N-(2,2-Diphenylethyl)-2-(2-Methoxypyrimidin-5-yl)Quinazolin-4-Amine], for which the melting point turned out to be 67 °C. Moreover, in data set [1], the half-maximal inhibitory concentration (IC50) was found to be 36 ± 2 nM and the maximal effect (Emax) was determined as 71 ± 1%.
On the same counts, the results for `c1ccc(C(CNc2nc(N3CCc4[nH]c5ccccc5c4C3)nc3ccccc23)c2ccccc2)cc1` [compound 191, 2-(3,4-Dihydro-1H-Pyrido[4,3-B]Indol-2(5H)-yl)-N-(2,2-Diphenylethyl)Quinazolin-4-Amine] are 258 to 260 °C, 16 ± 3 nM and 78 ± 2%.
For `Cc1cc2nccn2cc1-c1nc(NCC(C)c2ccccc2)c2ccccc2n1` (stereo not drawn) [compound 184, 2-(7-Methylimidazo[1,2-A]Pyridin-6-yl)-N-(2-Phenylpropyl)Quinazolin-4-Amine] the same measures were 208 to 212 °C, 5.3 ± 2 nM and 81 ± 4%.
In turn, `c1ccc(C2CN(c3nc(-c4cnc5nccn5c4)nc4ccccc34)Cc3ccccc32)cc1` (stereo not drawn) [compound 143, 2-(Imidazo[1,2-A]Pyrimidin-6-yl)-4-(4-Phenyl-3,4-Dihydroisoquinolin-2(1H)-yl)Quinazoline] returned a melting point of 104 to 106 °C. For the same molecule, in data set [1], the IC50 was 502 ± 84 nM and the Emax was found to be 73 ± 3%.
The molecule `Cc1cc2nccn2cc1-c1nc(NCC(O)c2ccccc2)c2ccccc2n1` (stereo not drawn) [compound 186] had a melting point of 221 to 224 °C. Further, in data set [1], half-maximal inhibition (IC50) required 14 ± 3 nM and the Emax amounted to 74 ± 2%.
